Measured values: publication PMC4888613, “Antifilarial activity of diterpenoids from Taxodium distichum” (Parasites & Vectors, 2016)
Several values for one entry are separate records, joined by “and”; a condition that tells them apart may be missing. Equal entries are not always repeated. Entries after “also recorded” stand apart in the source; their conditions may differ. Where two headings read alike, the source gives them in different places.

Legend:
[1] = tested on: Brugia malayi adult worms (AW); test: MTT reduction assay on adult female worms; assay type: cell-based; settings: for inhibition at 125 µg/mL: Brugia malayi, read-out: Mean % inhibition in MTT reduction by AW
Experimental: (§1) Motility and 3-(4,5-dimethylthiazol-2-yl)-2,5 diphenyltetrazolium bromide (MTT; Sigma-Aldrich, USA) reduction assays that indicate viability of the parasites were used. Test samples and ivermectin (purity 95 %; Sigma-Aldrich, USA) were dissolved in dimethyl sulfoxide (DMSO; Sigma-Aldrich, USA); the final concentration of DMSO in the incubation medium Hanks Balanced Salt Solution (HBSS; Sigma-Aldrich, USA) containing 100 U/ml penicillin and 100 μg/ml streptomycin (Sigma-Aldrich, USA), was kept ≤ 0.1 %. Diethylcarbamazine-citrate (DEC-C; purity 100 %; Sigma-Aldrich, USA) solution was prepared in sterile distilled water. HBSS containing DMSO (≤ 0.1 %) alone was used as negative control.
(§2) In vitro efficacy of the test agents and reference drugs was assessed on mf (40–50 mf/100 μl/well) in a 96-well cell culture plate (Nunc, Denmark) and on adult female worms (1 worm/ml/well) in a 48-well plate (Nunc, Denmark). The assays were run in triplicates.
MTT-reduction assay was carried out using adult worms as described elsewhere. The viability of the treated worms was assessed by calculating per cent inhibition in MTT-reduction potential of the treated worms over DMSO treated control parasites. A hundred percent inhibition in motility of female parasites or mf and or ≥ 50 % inhibition in MTT-reduction potential of the treated female parasites were considered to indicate positive antifilarial activity.
(§3) IC50 and CC50 of the test agents were determined using the method described elsewhere. […] The experiments were repeated twice.

[2] = tested on: Brugia malayi microfilariae (Mf); test: In vitro motility assay on microfilariae; assay type: cell-based; settings: for IC50: read-out: IC50 for Mf in MA
Experimental: (§4) Microfilariae and adult worms were harvested from p.c. of the M. unguiculatus harbouring approximately 5–6 month-old B. malayi infection. The parasites were washed thoroughly with HBSS (pH 7.2) containing antibiotics (penicillin: 100 U/ml; streptomycin: 100 μg/ml) and used for the present study.
as §1, §2
(§5) Motility assay using mf and adult worms was carried out as described elsewhere. Changes in parasite motility was assessed under a microscope and scored as: 0 = dead (100 %); 1-4 = loss of motility (1 = 75 %; 2 = 50 %; 3 = 25 %; and 4 = no loss of motility). The experiment was repeated twice.
as §3
(§6) Data were transferred to a graphic program (MS Excel) and IC50 and CC50 were calculated by linear interpolation between the two concentrations above and below 50 % inhibition.

CC50 cytotoxicity assay = assay type: cell-based, African green monkey; settings: African green monkey
Experimental: (§7) The assay was run in replicates in each of the two independent experiments.
as §6

[3] = tested on: Brugia malayi adult worms (AW); test: In vitro motility assay on adult female worms; assay type: cell-based; settings: for IC50: read-out: IC50 for AW in MA
Experimental: as §4, §1, §2, §5, §3, §6

Brugia malayi [4] = test: B. malayi-M. unguiculatus model (primary screening, intraperitoneal adult worm transplant); assay type: in vivo, Meriones unguiculatus; settings: for Effect on mf in peritoneal cavity / Sterilised female worm count / Worms recovered, Total / Sterilised female worms (%) (embryostatic activity) / Total worms, % reduction over untreated (macrofilaricidal activity): doses as in Table 2; for Sterilised female worm count / Worms recovered, Total / Worms recovered, Female / Worms recovered, Male: mean ± SD; for Sterilised female worm count / Worms recovered, Total / Worms recovered, Female / Worms recovered, Male / Sterilised female worms (%) (embryostatic activity) / Total worms, % reduction over untreated (macrofilaricidal activity): day 56 p.i.t.; for Worms recovered, Total: A001: the 5 of 6 animals without worms; for Worms recovered, Female / Worms recovered, Male: x 5 days: A001 500 mg/kg p.o., K003/K004 100, ivermectin 1, DEC-C 25 mg/kg s.c.; for Effect on adult worms: ivermectin 1 mg/kg
Source text: (§8) Meriones unguiculatus bearing intraperitoneally instilled adult worms and M. coucha inoculated with B. malayi L3 and showing microfilaremia in peritoneal cavity on day 3 post adult worm transplantation (p.a.t.) and progressive rise in microfilaraemia in peripheral circulation from day 120–180 post larval inoculation (p.l.i.), were employed as primary and secondary screening models, respectively, for assaying the antifilarial efficacy of the test agents.
(§9) The test agents were pulverised to fine powder and suspended in 1 % gum acacia/0.1 % Tween-80 in sterile distilled water. DEC-C and ivermectin were prepared in distilled water and ≤ 0.1 % Tween-80, respectively. The suspensions/solutions of the agents were prepared daily before administration to the animals.
(§10) Compounds K003 and K004 were given at 100 mg/kg body weight, subcutaneously (s.c.). The reference drugs DEC-C and ivermectin were administered to M. unguiculatus at 25 and 1 mg/kg body weight, respectively, while the M. coucha model received DEC-C at 50 mg/kg, body weight. […] Infected animals treated with vehicle only were used as control.
Male M. unguiculatus 8–10 weeks old (40–45 g) transplanted intraperitoneally with freshly isolated adult worms from B. malayi-infected M. unguiculatus were used for primary screening of test agents. On day 3 p.a.t., the peritoneal fluid was aspirated and checked for the presence of mf. The treatment was started on day 7/8 p.a.t. and continued for 5 consecutive days. On day 7/8 post-initiation of treatment (p.i.t) and thereafter at fortnightly intervals, the peritoneal fluid was examined under microscope to assess the condition of mf. All animals were killed on day 56 p.i.t. and parasites were collected from p.c., counted and examined for their viability and motility under microscope.
(§11) As a standard practice (following an accepted protocol) all the M. unguiculatus and M. coucha treated with test agents and vehicle were observed daily for their general health and behaviour (cage side observations) throughout the course of treatment and thereafter till termination of the experiment.
(§12) Microfilaricidal efficacy of the test agents was evaluated at each time point p.i.t and expressed as percent change in mf count over the pretreatment level.
(§13) Macrofilaricidal/adulticidal efficacy of the agents was assessed by calculating percent reduction in adult worm recovery in treated animals over untreated animals. Embryostatic/embryotoxic effect of agents was assessed by examining the uterine contents of female worms using the method described elsewhere and the percent of sterilised worms was determined from total female worms recovered from the treated and control animals.

Brugia malayi [5] = test: B. malayi-M. coucha model (secondary screening, L3 induced infection); assay type: in vivo, Mastomys coucha; settings: for Macrofilaricidal activity (reduction in adult worm recovery over untreated control): DEC-C 50 mg/kg s.c. x 5 days, animals killed day 91 p.i.t.; for Sterile female worms: of surviving female parasites, day 91 p.i.t., control about 28 %; for Course of microfilaraemia: up to day 91 p.i.t.; for Regression line of microfilarial counts against days: trend of post-treatment microfilaraemia in Fig. 5a
Source text: as §8, §9, §10
Mastomys coucha harbouring 5–7 month-old (L3 induced) B. malayi infection and showing progressive rise in microfilaraemia was used as secondary screening model. Mf count was recorded in peripheral blood (10 μl tail blood) just before initiation of the treatment (day 0), on day 7/8 and thereafter at weekly intervals till day 91 p.i.t. The animals were killed on day 91 p.i.t.
as §11, §12, §13
Statistical analyses were carried out using GraphPad Prism 3.0 software. Results were expressed as the mean ± standard deviation (S.D.) of data obtained from 4–6 animals in two experiments. The data were analysed by Student’s ‘t’ test and one-way ANOVA followed by Tukey’s multiple comparison test, as appropriate. Differences with P < 0.05 were considered significant. The microfilaricidal efficacy of antifilarials was determined by comparing the slopes of control, K003 and DEC treated groups. The slopes of the regression line were compared by standard procedure.

VERO Cell line C1008 = test: CC50 cytotoxicity assay; assay type: cell-based, African green monkey; settings: reference drugs, values in μM
Experimental: as §7, §6

[6] = over DMSO control, test conc.: 500 μg/ml extract/fractions, 125 μg/ml compounds, 1000 μM DEC, 10/20 μM ivermectin
[7] = 100 % reduction in motility (death) of microfilariae
[8] = Brugia malayi, 50 % inhibition in motility of microfilariae
[9] = VERO C1008 cells (African green monkey kidney cells), concentration at which 50 % of VERO cells are killed, read-out: CC50
[10] = 100 % reduction in motility (death) of adult worms
[11] = Brugia malayi, 50 % inhibition in motility of adult worms
[12] = Brugia malayi, reference drugs, values in μM

| Compound | inhibition at 125 µg/mL [1, 6] [%] | LC100 for Mf in MA [2, 7] [µg/mL] | IC50 [2, 8] [µg/mL] | CC50 (CC50 cytotoxicity assay; [9]) [µg/mL] | LC100 for AW in MA [3, 10] [µg/mL] | IC50 [3, 11] [µg/mL] | Mean % inhibition in MTT reduction by AW [1, 6] [%] | Effect on mf in peritoneal cavity (Brugia malayi [4]) | Sterilised female worm count (Brugia malayi [4]) | Worms recovered, Total (Brugia malayi [4]) | Worms recovered, Female (Brugia malayi [4]) | Worms recovered, Male (Brugia malayi [4]) | Macrofilaricidal activity (reduction in adult worm recovery over untreated control) (Brugia malayi [5]) | Sterile female worms (Brugia malayi [5]) [%] | Course of microfilaraemia (Brugia malayi [5]; peripheral blood) | Regression line of microfilarial counts against days (Brugia malayi [5]) | LC100 for Mf in MA ([2]; reference drugs, values in μM) [µM] | Sterilised female worms (%) (embryostatic activity) (Brugia malayi [4]) | Total worms, % reduction over untreated (macrofilaricidal activity) (Brugia malayi [4]) | Effect on adult worms (Brugia malayi [4]; DEC-C 25 mg/kg s.c. x 5 days) | also measured |
| --- | --- | --- | --- | --- | --- | --- | --- | --- | --- | --- | --- | --- | --- | --- | --- | --- | --- | --- | --- | --- | --- |
| C=C1CCC2C(C)(C)C(OC(C)=O)CC[C@@]2(C)C1CC/C(C)=C/C(=O)O (some centres unmarked) [Compound K001, 3-Acetoxylabda-8(20),13-diene-15-oic acid] | 76.9 | 250 | 88.4 | 697 | 62.50 | 41.2 |  |  |  |  |  |  |  |  |  |  |  |  |  |  |  |
| CC[C@H](CC[C@@H](C)[C@H]1CC[C@H]2[C@@H]3CC=C4C[C@@H](O)CC[C@]4(C)[C@H]3CC[C@]12C)C(C)C [Compound K002, Beta-sitosterol] |  | > 250 |  |  | > 250 |  |  |  |  |  |  |  |  |  |  |  |  |  |  |  | inhibition at 125 µg/mL [1]: 38%; IC50 ([2]; Brugia malayi): > 250 µg/mL; IC50 ([3]; Brugia malayi): > 250 µg/mL |
| C=C1CCC2C(C)(C)CCC[C@@]2(C)C1CC/C(C)=C/C(=O)O (some centres unmarked) [Compound K003, labda-8(20),13-diene-15-oic acid] | > 80 | 31.25 | 18.6 | 180 | 125 | 74.3 | 82.05 | ineffective against mf | 8.00 ± 0.71 | 8.40 ± 1.14 | 8.00 ± 0.71 | 0.40 ± 0.89 | ~ 54% and 53.94% | > 36 | had more or less no effect on microfilaraemia till day 42 p.i.t., but thereafter microfilaraemia stopped increasing as compared to control; also recorded: stopped any further rise in microfilaraemia after day 42 p.i.t | 183.65 ± 0.82 days |  |  |  |  | Reduction in motility of mf ([2]; in vitro): 100%; Reduction in motility of adult worms ([3]; in vitro): 100% |
| CCN(CC)C(=O)N1CCN(C)CC1 [DEC-C, Diethylcarbamazine-citrate] |  |  |  |  |  |  |  | did not affect mf count | 0.60 ± 0.89 | 9.20 ± 1.48 | 6.60 ± 1.14 | 2.60 ± 0.55 | around 26.47% | 20 | gradually increased and relapsed by day 49 p.i.t.; the count further increased rapidly and crossed the pretreatment level by day 56 p.i.t. | -21.04 + 2.95 days | 500 | (7.86 ± 11.41) % | (22.03) % | mild macrofilaricidal activity | IC50 [2, 12]: 297 µM; CC50 (CC50 cytotoxicity assay): 9000 µM; Effect on female reproductive potential (Brugia malayi [4]; DEC-C 25 mg/kg s.c. x 5 days): did not affect mf count or female reproductive potential; IC50 [3, 12]: 315 µM; LC100 for AW in MA ([3]; reference drugs, values in μM): 1000 µM; Reduction in microfilarial count on day 7/8 p.i.t. (Brugia malayi [5]; DEC-C 50 mg/kg, peripheral blood): > 80% |
| ivermectin |  |  |  |  |  |  | 5.80 | did not affect mf in p.c. | 2.75 ± 0.96 |  | 6.25 ± 1.50 | 2.75 ± 0.96 |  |  |  |  | 2.5 | (44.29 ± 5.15) % | (22.43) % | mild but not statistically significant effect on adult worms | IC50 ([2]; reference drugs, values in μM): 1.57 µM; CC50 (VERO Cell line C1008): 250 µM; Sterilised female worms (%) (embryostatic activity) (Brugia malayi [4]; listed as ivermectin): 44%; LC100 for AW in MA ([3]; reference drugs, values in μM): 5 µM; IC50 ([3]; reference drugs, values in μM): 3.05 µM |
